# Test results as given in publication PMC3139011 (Archives of biochemistry and biophysics, 2011).
# What was measured:
# [1] = target: T1, hDUOX1_1–593 (Homo sapiens, UniProt Q9NRD9); assay: heme titration, difference absorbance spectroscopy; type: binding
# T1 sequence (Q9NRD9 1-593): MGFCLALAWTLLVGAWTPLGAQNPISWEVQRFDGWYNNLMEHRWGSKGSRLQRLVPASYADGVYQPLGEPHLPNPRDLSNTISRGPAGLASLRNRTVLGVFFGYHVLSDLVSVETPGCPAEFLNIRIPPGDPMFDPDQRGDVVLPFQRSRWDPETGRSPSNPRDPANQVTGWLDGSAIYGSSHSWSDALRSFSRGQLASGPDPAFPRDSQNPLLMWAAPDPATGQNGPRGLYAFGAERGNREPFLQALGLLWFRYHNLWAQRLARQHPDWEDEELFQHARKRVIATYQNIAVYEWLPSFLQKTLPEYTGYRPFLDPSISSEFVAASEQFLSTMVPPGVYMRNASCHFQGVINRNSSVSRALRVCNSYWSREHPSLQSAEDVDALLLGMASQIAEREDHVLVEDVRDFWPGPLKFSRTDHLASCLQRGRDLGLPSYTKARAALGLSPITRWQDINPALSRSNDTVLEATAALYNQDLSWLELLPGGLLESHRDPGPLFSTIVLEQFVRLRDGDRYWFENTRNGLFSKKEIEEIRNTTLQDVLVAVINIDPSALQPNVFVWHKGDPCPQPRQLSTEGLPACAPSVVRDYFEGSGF
# [2] = target: T2, hDUOX2_1–599 (Homo sapiens, UniProt Q9NRD8); assay: heme titration, difference absorbance spectroscopy; type: binding
# T2 sequence (Q9NRD8 1-599): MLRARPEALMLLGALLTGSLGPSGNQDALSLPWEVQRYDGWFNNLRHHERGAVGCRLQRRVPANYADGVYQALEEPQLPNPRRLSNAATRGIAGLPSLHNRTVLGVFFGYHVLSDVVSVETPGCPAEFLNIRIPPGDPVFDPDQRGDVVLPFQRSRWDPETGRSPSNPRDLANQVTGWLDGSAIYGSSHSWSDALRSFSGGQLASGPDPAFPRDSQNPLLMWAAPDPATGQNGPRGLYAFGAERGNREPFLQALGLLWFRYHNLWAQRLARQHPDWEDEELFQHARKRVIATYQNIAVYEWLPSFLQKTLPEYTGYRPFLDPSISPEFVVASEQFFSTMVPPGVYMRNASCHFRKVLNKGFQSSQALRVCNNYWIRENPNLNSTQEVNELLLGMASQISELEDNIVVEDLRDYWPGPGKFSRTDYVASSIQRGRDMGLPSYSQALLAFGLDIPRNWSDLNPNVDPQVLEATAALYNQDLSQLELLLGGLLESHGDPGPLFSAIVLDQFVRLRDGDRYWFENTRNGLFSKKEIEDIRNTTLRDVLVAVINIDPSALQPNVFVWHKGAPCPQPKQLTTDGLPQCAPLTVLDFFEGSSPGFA
compound,measurement,setting,value
C=CC1=C(C)C2=Cc3c(C=C)c(C)c4[n]3[Fe]([Cl])[n]3c(c(C)c(CCC(=O)O)c3=CC3=NC(=C4)C(C)=C3CCC(=O)O)=CC1=N2 [heme],Kd,[1],2700 ± 100 nM
same,Kd,[2],2400 ± 400 nM
